Laboratory results reported in US9918985B2, “Compounds and their use as BACE inhibitors” (ASTRAZENECA AB, priority 2010, dated 2018).

How the values were obtained:
[1] = test system: sAPPβ release in SH-SY5Y cells; assay: sAPPβ release assay; type: cell-based; details: 17 h incubation
Protocol: Thaw cells and seed at a conc. of around 10000 cells/well in DMEM/F-12 with Glutamax, 10% FCS and 1% non-essential amino acids to a 384-well tissue culture treated plate, 100 μL cell susp/well. […] The cell medium was removed, followed by addition of 30 μL compound diluted in DMEM/F-12 with Glutamax, 10% FCS, 1% non-essential amino acids and 1% PeSt to a final conc. of 1% DMSO. The compounds were incubated with the cells for 17 h (overnight) at 37° C., 5% CO2. Meso Scale Discovery (MSD) plates were used for the detection of sAPPIβ release. MSD sAPPIβ plates were blocked in 1% BSA in Tris wash buffer (40 μL/well) for 1 h on shake at r.t. and washed 1 time in Tris wash buffer (40 μL/well). 20 μL of medium was transferred to the pre-blocked and washed MSD sAPPIβ microplates, and the cell plates were further used in an ATP assay to measure cytotoxicity. The MSD plates were incubated with shaking at r.t. for 2 h and the media discarded. 10 μL detection antibody was added (1 nM) per well followed by incubation with shaking at r.t. for 2 h and then discarded. 40 μL Read Buffer was added per well and the plates were read in a SECTOR Imager.

[2] = target: human β-Secretase (soluble part, sBACE-Fc) (Homo sapiens (Human), UniProt P56817); assay: TR-FRET assay; type: biochemical; details: standard TR-FRET assay, 15 minutes reaction at r.t.
human β-Secretase (soluble part, sBACE-Fc), sequence (P56817 22-460): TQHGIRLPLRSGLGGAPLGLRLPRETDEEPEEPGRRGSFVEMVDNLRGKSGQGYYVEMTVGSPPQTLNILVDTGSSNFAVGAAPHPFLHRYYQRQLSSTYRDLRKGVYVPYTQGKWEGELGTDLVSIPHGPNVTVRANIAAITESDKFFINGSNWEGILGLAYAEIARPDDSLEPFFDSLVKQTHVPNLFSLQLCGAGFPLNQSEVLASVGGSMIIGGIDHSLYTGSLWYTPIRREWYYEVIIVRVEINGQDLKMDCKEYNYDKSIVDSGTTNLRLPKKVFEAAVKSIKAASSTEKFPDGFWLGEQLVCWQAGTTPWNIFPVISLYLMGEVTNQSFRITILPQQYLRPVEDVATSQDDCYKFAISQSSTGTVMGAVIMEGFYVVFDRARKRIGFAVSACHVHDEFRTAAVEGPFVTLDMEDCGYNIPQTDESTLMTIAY
Protocol: The β-secretase enzyme used in the TR-FRET is prepared as follows:
The cDNA for the soluble part of the human β-Secretase (AA 1-AA 460) was cloned using the ASP2-Fc10-1-IRES-GFP-neoK mammalian expression vector. The gene was fused to the Fc domain of IgG1 (affinity tag) and stably cloned into HEK 293 cells.
The robotic systems Biomek FX and Velocity 11 were used for all liquid handling and the enzyme and substrate solutions were kept on ice until they were placed in the robotic system. Enzyme (9 μl) was added to the plate then 1 μl of compound in dimethylsulphoxide was added, mixed and pre-incubated for 10 minutes. Substrate (10 μl) was then added, mixed and the reaction proceeded for 15 minutes at r.t. The reaction was stopped with the addition of Stop solution (7 μl, NaAcetate, pH 9). […] The dimethylsulphoxide control, instead of test compound, defined the 100% activity level and 0% activity was defined by wells lacking enzyme (replaced with reaction buffer).

IC50 [2]	Compound	IC50 [1]
–	CCC1=NC2(N=C1N)c1cc(-c3cncc(Cl)c3)ccc1C[C@]21CC[C@@H](OC)CC1 (single isomer, unassigned; isomer 1) [Example 66 Isomer 1, (1r,4r)-6′-(5-chloropyridin-3-yl)-5″-ethyl-4-methoxy-3′H-dispiro[cyclohexane-1,2′-indene-1′,2″-imidazol]-4″-amine]	1.6 nM
–	CC#Cc1cncc(-c2ccc3c(c2)C2(N=C(N)C(CC)=N2)[C@]2(CC[C@H](OC)CC2)C3)c1 (single isomer, unassigned; isomer 1) [Example 68 Isomer 1, (1r,4r)-5″-ethyl-4-methoxy-6′-[5-(prop-1-yn-1-yl)pyridin-3-yl]-3′H-dispiro[cyclohexane-1,2′-indene-1′,2″-imidazol]-4″-amine]	0.38 nM
–	CCC1=NC2(N=C1N)c1cc(-c3cccc(C#N)c3)ccc1C[C@]21CC[C@@H](OC)CC1 (single isomer, unassigned; isomer 1) [Example 71 Isomer 1, 3-[(1r,4r)-4″-amino-5″-ethyl-4-methoxy-3′H-dispiro-[cyclohexane-1,2′-indene-1′,2″-imidazol]-6′-yl]benzonitrile]	5.2 nM
–	CCC1=NC2(N=C1N)c1cc(-c3cccc(C#N)c3)ccc1C[C@]21CC[C@@H](OC)CC1 (single isomer, unassigned; isomer 2) [Example 71 Isomer 2, 3-[(1r,4r)-4″-amino-5″-ethyl-4-methoxy-3′H-dispiro-[cyclohexane-1,2′-indene-1′,2″-imidazol]-6′-yl]benzonitrile]	763 nM
34 nM	CO[C@H]1CC[C@]2(CC1)Cc1ccc(-c3ccc(F)cc3F)cc1[C@@]21N=C(C)C(N)=N1 [Example 103, (1r,1′R,4R)-6′-(2,4-Difluorophenyl)-4-methoxy-5″-methyl-3′H-dispiro[cyclohexane-1,2′-indene-1′,2″-imidazol]-4″-amine]	–
842 nM	CCO[C@H]1CC[C@]2(CC1)Cc1ccc(Br)cc1C21N=C(C)C(N)=N1 (stereo partly drawn) [Example 130, (1r,4r)-6′-Bromo-4-ethoxy-5″-methyl-3′H-dispiro[cyclohexane-1,2′-indene-1′,2″-imidazol]-4″-amine]	–
